Source: patent US9949917B2, “Cosmetic composition comprising a combination of a sugar fatty acid ester with a plant extract of Waltheria indica or Pisum sativum for skin whitening” (Cognis IP Management GmbH, priority 2006, dated 2018)

Legend:
[1] = target: T1, Tyrosinase in B16 melanocytes (Mus musculus, UniProt P11344); assay: Tyrosinase activity on melanocytes (DL-DOPA, optical density at 475 nm); type: cell-based
T1 construct: endogenous in cells; host or cells: B16 melanocytes (cell line)
T1 sequence (P11344 19-533): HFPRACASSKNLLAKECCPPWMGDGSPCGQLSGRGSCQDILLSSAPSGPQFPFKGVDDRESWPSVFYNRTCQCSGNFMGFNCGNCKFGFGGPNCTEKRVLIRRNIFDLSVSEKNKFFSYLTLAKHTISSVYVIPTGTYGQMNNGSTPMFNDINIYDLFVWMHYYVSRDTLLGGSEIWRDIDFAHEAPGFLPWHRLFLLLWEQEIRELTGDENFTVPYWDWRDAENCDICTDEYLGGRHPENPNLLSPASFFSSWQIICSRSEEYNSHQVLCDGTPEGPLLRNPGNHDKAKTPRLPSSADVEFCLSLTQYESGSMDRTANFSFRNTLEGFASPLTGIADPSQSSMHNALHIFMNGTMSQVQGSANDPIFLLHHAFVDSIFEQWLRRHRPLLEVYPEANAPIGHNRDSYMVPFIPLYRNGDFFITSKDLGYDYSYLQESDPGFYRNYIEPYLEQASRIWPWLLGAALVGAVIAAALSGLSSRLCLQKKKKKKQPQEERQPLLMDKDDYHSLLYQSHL
Text: Melanocytes (B16 cell line) were inoculated in standard medium of cell culture with foetal calf serum (FCS). […] Combinations of ingredients have been tested on the same cultures, in parallel with ingredients alone. […] The optical density at 475 nm is expressed as a % against control and presented as a mean+/−SEM (standard error of mean) of triplicates.

[2] = tested on: Melanocytes (B16 cell line); assay: Melanogenesis inhibition assay: level of melanin (optical density at 475 nm); type: cell-based
Description: Melanocytes (B16 cell line) were inoculated in standard medium of cell culture with foetal calf serum (FCS). After an incubation for 3 days at 37° C. and CO2=5%, growth medium was exchanged for standard medium with a range of concentrations for each ingredient to be tested and a control without ingredient. After an incubation of 3 days, the level of melanin is measured by recording the optical density at 475 nm. After washing the cells by a balanced salt, and homogenisation in a solution of 0.1 M NaOH, the number of viable cells is determined by evaluation of the level of cellular proteins (Bradford's method).
Combinations of ingredients have been tested on the same cell cultures, in parallel with the ingredients alone. The results are expressed in % against control (cell culture medium without ingredient) as a mean+/−SEM (Standard Error of Mean) on 2 or 3 assays, each in triplicate.

[3] = sucrose laurate 0.0003% (w/v) alone, 3 assays

## Sucrose laurate [Sucrose laurate of example 5]
[1]; Tables 7 and 8
  effect on tyrosinase activity in melanocytes (in words): decreases the tyrosinase activity
[1]; sucrose laurate 0.005% (w/v) alone
  Tyrosinase activity in %/control: 75 +/− 6 %/control
[1]; sucrose laurate 0.01% (w/v) alone
  Tyrosinase activity in %/control: 64 +/− 7 %/control
[2]; [3]
  Rate of melanin in %/control: 56 +/− 18 %/control
  Ratio of rate of cellular proteins on rate of melanin: 1.8
[2]; sucrose laurate 0.0003% (w/v) alone, 3 assays, listed as sucrose laurate
  Rate of melanin in %/control: 56+/−18 %/control
[2]; sucrose laurate 0.001% (w/v) alone, 2 assays (Table 5)
  Rate of melanin in %/control: 56 +/− 7 %/control
[2]; sucrose laurate 0.001% (w/v) alone, 2 assays (Table 6)
  Ratio of rate of cellular proteins on rate of melanin: 1.6
[2]; sucrose laurate 0.001% (w/v) alone, 3 assays (Table 2)
  Rate of melanin in %/control: 54 +/− 16 %/control
[2]; sucrose laurate 0.001% (w/v) alone, 3 assays (Table 2), listed as sucrose laurate
  Rate of melanin in %/control: 54+/−16 %/control
[2]; sucrose laurate 0.001% (w/v) alone, 3 assays (Table 3)
  Ratio of rate of cellular proteins on rate of melanin: 1.8
